Experimental data as given in patent publication US9109048B2, “Inhibition of tumor growth” (priority 1998, dated 2015).
Values after ≈ are worked out from the molar mass of the structure shown. Ends that are not written are not given here. Peptide text beside a SMILES is read from it. * marks the point of attachment. Acm = CC(=O)NC*

Key:
[1] = system: Escherichia coli ATCC 25922; assay: MIC (minimum inhibitory concentration) test, microdilution; assay type: cell-based; details: for Minimum inhibitory concentration (MIC) E. coli ATCC 25922: Table 1, value in parentheses; for Mic E-coli: Table 19
Experimental: (§1) The bacterial strains used were: Escherichia coli ATCC 25922 and Staphylococcus aureus ATCC 25923. All strains were stored at −70° C. The bacteria were grown in 2% Bacto Peptone water (Difco 1807-17-4). All tests were performed with bacteria in mid-logarithmic growth phase. Determination of the minimum inhibitory concentration (MIC) of the peptides for bacterial strains were performed in 1% Bacto Peptone water. A standard microdilution technique with an inoculum of 2×10^6 CFU/ml was used. All assays were performed in triplets. Since the peptides are positively charged and therefore could adhere to the plastic wells, we controlled the actual concentration of the peptides in the solution by HPLC. There was no difference between the concentration of the peptides before or after adding the solution to the plastic wells.

[2] = system: Staphylococcus aureus ATCC 25923; assay: as above; assay type: cell-based; details: for MIC S. aureus: ATCC 25923; for Minimum inhibitory concentration (MIC) S. aureus ATCC 25923: Table 1, value in parentheses
Experimental: as §1

| Compound | MIC E. coli ([1]; ATCC 25922) | Minimum inhibitory concentration (MIC) E. coli ATCC 25922 [1] [µM] | MIC S. aureus [2] [µg/mL] | Minimum inhibitory concentration (MIC) S. aureus ATCC 25923 [2] [µM] | Mic E-coli [1] | MIC E. coli ([1]; Table 15) [µg/mL] |
| --- | --- | --- | --- | --- | --- | --- |
| CSCC[C@H](NC(=O)[C@H](CCCNC(=N)N)NC(=O)[C@H](Cc1c[nH]c2ccccc12)NC(=O)[C@H](CCC(N)=O)NC(=O)[C@H](Cc1c[nH]c2ccccc12)NC(=O)[C@H](CCCNC(=N)N)NC(=O)[C@H](CCCNC(=N)N)NC(=O)[C@H](CSCNC(C)=O)NC(=O)[C@@H](N)CCCCN)C(=O)N[C@@H](CCCCN)C(=O)N[C@@H](CCCCN)C(=O)N[C@@H](CC(C)C)C(=O)NCC(=O)N[C@@H](C)C(=O)O [LFB 18-31] (H-KC(Acm)RRWQWRMKKLGA-OH; N-terminus and C-terminus assumed) | 80 µg/mL | 43 (≈ 82.5 µg/mL) | 200 (≈ 104 µM) | 108 (≈ 207 µg/mL) | – | – |
| PAWRKAFRWAWRMLKKAA-OH [LFB 14-31 A2,6,10,17 F7K16L14R4] | – | – | – | – | 2/4 | – |
| CSCC[C@H](NC(=O)[C@H](CCCNC(=N)N)NC(=O)[C@H](Cc1c[nH]c2ccccc12)NC(=O)[C@H](CCC(N)=O)NC(=O)[C@H](Cc1c[nH]c2ccccc12)NC(=O)[C@H](CCCNC(=N)N)NC(=O)[C@H](Cc1ccccc1)NC(=O)[C@H](CSCNC(C)=O)NC(=O)[C@H](CCCCN)NC(=O)[C@@H](N)CCCCN)C(=O)N[C@@H](CCCCN)C(=O)N[C@@H](CCCCN)C(=O)N[C@@H](CC(C)C)C(=O)NCC(=O)N[C@@H](C)C(=O)O [LFB F4K1] (H-KKC(Acm)FRWQWRMKKLGA-OH; N-terminus assumed) | 20 µg/mL | 10 (≈ 20.4 µg/mL) | 200 (≈ 98.2 µM) | 100 (≈ 204 µg/mL) | – | – |
| GIGKFLKKARKFGRAWVRILKKG [Tosmag W16] | 10 µg/mL | – | 5 | – | – | – |
| CSCC[C@H](NC(=O)[C@H](CCCNC(=N)N)NC(=O)[C@H](Cc1c[nH]c2ccccc12)NC(=O)[C@H](CCC(N)=O)NC(=O)[C@H](Cc1c[nH]c2ccccc12)NC(=O)[C@H](CCCNC(=N)N)NC(=O)[C@H](CCCNC(=N)N)NC(=O)[C@@H](N)CSCNC(C)=O)C(=O)N[C@@H](CCCCN)C(=O)N[C@@H](CCCCN)C(=O)N[C@@H](CC(C)C)C(=O)NCC(=O)N[C@@H](C)C(=O)O [LFB 19-31] (H-C(Acm)RRWQWRMKKLGA-OH; N-terminus and C-terminus assumed) | – | 120 (≈ 215 µg/mL) | – | > 150 | – | – |
| CSCC[C@H](NC(=O)[C@H](CCCNC(=N)N)NC(=O)[C@H](Cc1c[nH]c2ccccc12)NC(=O)[C@H](CCC(N)=O)NC(=O)[C@H](Cc1c[nH]c2ccccc12)NC(=O)[C@H](CCCNC(=N)N)NC(=O)[C@H](CCCNC(=N)N)NC(=O)[C@H](CSCNC(C)=O)NC(=O)[C@H](CCCCN)NC(=O)[C@@H](N)CCCCN)C(=O)N[C@@H](CCCCN)C(=O)N[C@@H](CCCCN)C(=O)N[C@@H](CC(C)C)C(=O)NCC(=O)N[C@@H](C)C(=O)O [LFB K1] (H-KKC(Acm)RRWQWRMKKLGA-OH; N-terminus assumed) | 60 µg/mL | 30 (≈ 61.4 µg/mL) | 100 (≈ 48.9 µM) | 50 (≈ 102 µg/mL) | – | – |
| YRAWRWAWRWR-NH2 [LFM 17-27 A7R2,8,9W3,4,10Y1 NH2, TYR-ARG-ALA-TRP-ARG-TRP-ALA-TRP-ARG-TRP-ARG-CONH2] | 10 µg/mL | – | 2.5 | – | – | – |
| YRMWRWAWRWR-NH2 [LFB 17-27 A7 M3 R2,11 W4,10 Y1 NH2] | 5.7 µM | – | – | – | – | 10.0 |
| PAWRKAFRWAIRMLKKAA [LFB 14-31A2,6,10,17F7I11K16L14R4] | – | – | – | – | 2/5 | – |
